Assays:
[1] = molecular target: Focal adhesion kinase 1 (Homo sapiens) (UniProt Q05397); settings: Compound concentration 1000.0 nM
[2] = molecular target: Cyclin-dependent kinase 2 homolog (Plasmodium falciparum (isolate 3D7)) (UniProt P61075); settings: Compound concentration 1000.0 nM
[3] = molecular target: TGF-beta receptor type-1 (Homo sapiens) (UniProt P36897); settings: Compound concentration 1000.0 nM
[4] = molecular target: Cyclin-dependent kinase 11A (Homo sapiens) (UniProt Q9UQ88); settings: Compound concentration 1000.0 nM
[5] = molecular target: Phosphatidylinositol 4-phosphate 5-kinase type-1 alpha (Homo sapiens) (UniProt Q99755); settings: Compound concentration 1000.0 nM
[6] = molecular target: Beta-3 adrenergic receptor (Homo sapiens, UniProt P13945); settings: Compound concentration 10.0 uM
[7] = molecular target: Mitogen-activated protein kinase 4 (Homo sapiens) (UniProt P31152); settings: Compound concentration 1000.0 nM
[8] = molecular target: Cyclin-dependent kinase 15 (Homo sapiens) (UniProt Q96Q40); settings: Compound concentration 1000.0 nM
[9] = molecular target: Alpha-2B adrenergic receptor (Homo sapiens) (UniProt P18089); settings: Compound concentration 10.0 uM
[10] = molecular target: Casein kinase I isoform gamma-3 (Homo sapiens) (UniProt Q9Y6M4); settings: Compound concentration 1000.0 nM
[11] = test system: Mast/stem cell growth factor receptor Kit (Homo sapiens), P10721 [D816V]; settings: Compound concentration 1000.0 nM
[12] = molecular target: Serine/threonine-protein kinase Nek5 (Homo sapiens) (UniProt Q6P3R8); settings: Compound concentration 1000.0 nM
[13] = molecular target: Phosphatidylinositol 5-phosphate 4-kinase type-2 gamma (Homo sapiens) (UniProt Q8TBX8); settings: Compound concentration 1000.0 nM
[14] = molecular target: Serine/threonine-protein kinase LATS1 (Homo sapiens) (UniProt O95835); settings: Compound concentration 1000.0 nM
[15] = molecular target: Ephrin type-A receptor 4 (Homo sapiens) (UniProt P54764); settings: Compound concentration 1000.0 nM
[16] = molecular target: LIM domain kinase 2 (Homo sapiens) (UniProt P53671); settings: Compound concentration 1000.0 nM
[17] = molecular target: 5'-AMP-activated protein kinase catalytic subunit alpha-1 (Homo sapiens) (UniProt Q13131); settings: Compound concentration 1000.0 nM
[18] = molecular target: Serine/threonine-protein kinase haspin (Homo sapiens) (UniProt Q8TF76); settings: Compound concentration 1000.0 nM
[19] = molecular target: Casein kinase I isoform epsilon (Homo sapiens) (UniProt P49674); settings: Compound concentration 1000.0 nM
[20] = molecular target: Cyclin-dependent kinase 2 (Homo sapiens) (UniProt P24941); settings: Compound concentration 1000.0 nM
[21] = molecular target: Vascular endothelial growth factor receptor 3 (Homo sapiens) (UniProt P35916); settings: Compound concentration 1000.0 nM
[22] = molecular target: Discoidin domain-containing receptor 2 (Homo sapiens) (UniProt Q16832); settings: Compound concentration 1000.0 nM
[23] = molecular target: Death-associated protein kinase 2 (Homo sapiens) (UniProt Q9UIK4); settings: Compound concentration 1000.0 nM
[24] = molecular target: Ephrin type-B receptor 3 (Homo sapiens) (UniProt P54753); settings: Compound concentration 1000.0 nM
[25] = molecular target: Cyclin-dependent kinase 4 (Homo sapiens) (UniProt P11802); settings: Compound concentration 1000.0 nM
[26] = molecular target: Calcium-dependent protein kinase 1 (Plasmodium falciparum) (UniProt P62344); settings: Compound concentration 1000.0 nM
[27] = molecular target: Atypical kinase COQ8B, mitochondrial (Homo sapiens) (UniProt Q96D53); settings: Compound concentration 1000.0 nM
[28] = molecular target: Mitogen-activated protein kinase 14 (Homo sapiens) (UniProt Q16539); settings: Compound concentration 1000.0 nM
[29] = molecular target: Serine/threonine-protein kinase MAK (Homo sapiens) (UniProt P20794); settings: Compound concentration 1000.0 nM
[30] = molecular target: Dual specificity tyrosine-phosphorylation-regulated kinase 2 (Homo sapiens) (UniProt Q92630); settings: Compound concentration 1000.0 nM
[31] = molecular target: Ribosomal protein S6 kinase alpha-5 (Homo sapiens) (UniProt O75582); settings: Compound concentration 1000.0 nM
[32] = molecular target: Interleukin-1 receptor-associated kinase 1 (Homo sapiens) (UniProt P51617); settings: Compound concentration 1000.0 nM
[33] = molecular target: Serine/threonine-protein kinase 26 (Homo sapiens) (UniProt Q9P289); settings: Compound concentration 1000.0 nM
[34] = molecular target: Dual specificity mitogen-activated protein kinase kinase 3 (Homo sapiens) (UniProt P46734); settings: Compound concentration 1000.0 nM
[35] = molecular target: Macrophage-stimulating protein receptor (Homo sapiens) (UniProt Q04912); settings: Compound concentration 1000.0 nM
[36] = molecular target: Platelet-derived growth factor receptor beta (Homo sapiens) (UniProt P09619); settings: Compound concentration 1000.0 nM
[37] = molecular target: Cyclin-dependent kinase 14 (Homo sapiens) (UniProt O94921); settings: Compound concentration 1000.0 nM
[38] = molecular target: Ephrin type-B receptor 1 (Homo sapiens) (UniProt P54762); settings: Compound concentration 1000.0 nM
[39] = test system: Receptor-type tyrosine-protein kinase FLT3 (Homo sapiens), P36888 [UNDEFINED MUTATION]; settings: Compound concentration 1000.0 nM
[40] = molecular target: Serine/threonine-protein kinase 32A (Homo sapiens) (UniProt Q8WU08); settings: Compound concentration 1000.0 nM
[41] = molecular target: Cyclin-dependent kinase 7 (Homo sapiens) (UniProt P50613); settings: Compound concentration 1000.0 nM
[42] = test system: Mast/stem cell growth factor receptor Kit (Homo sapiens), P10721 [V559D,V654A]; settings: Compound concentration 1000.0 nM
[43] = molecular target: Serine/threonine-protein kinase 17A (Homo sapiens) (UniProt Q9UEE5); settings: Compound concentration 1000.0 nM
[44] = molecular target: RAC-gamma serine/threonine-protein kinase (Homo sapiens) (UniProt Q9Y243); settings: Compound concentration 1000.0 nM
[45] = molecular target: Serine/threonine-protein kinase Nek1 (Homo sapiens) (UniProt Q96PY6); settings: Compound concentration 1000.0 nM

Chain of Ephrin type-B receptor 1 (Homo sapiens) (P54762 whole entry): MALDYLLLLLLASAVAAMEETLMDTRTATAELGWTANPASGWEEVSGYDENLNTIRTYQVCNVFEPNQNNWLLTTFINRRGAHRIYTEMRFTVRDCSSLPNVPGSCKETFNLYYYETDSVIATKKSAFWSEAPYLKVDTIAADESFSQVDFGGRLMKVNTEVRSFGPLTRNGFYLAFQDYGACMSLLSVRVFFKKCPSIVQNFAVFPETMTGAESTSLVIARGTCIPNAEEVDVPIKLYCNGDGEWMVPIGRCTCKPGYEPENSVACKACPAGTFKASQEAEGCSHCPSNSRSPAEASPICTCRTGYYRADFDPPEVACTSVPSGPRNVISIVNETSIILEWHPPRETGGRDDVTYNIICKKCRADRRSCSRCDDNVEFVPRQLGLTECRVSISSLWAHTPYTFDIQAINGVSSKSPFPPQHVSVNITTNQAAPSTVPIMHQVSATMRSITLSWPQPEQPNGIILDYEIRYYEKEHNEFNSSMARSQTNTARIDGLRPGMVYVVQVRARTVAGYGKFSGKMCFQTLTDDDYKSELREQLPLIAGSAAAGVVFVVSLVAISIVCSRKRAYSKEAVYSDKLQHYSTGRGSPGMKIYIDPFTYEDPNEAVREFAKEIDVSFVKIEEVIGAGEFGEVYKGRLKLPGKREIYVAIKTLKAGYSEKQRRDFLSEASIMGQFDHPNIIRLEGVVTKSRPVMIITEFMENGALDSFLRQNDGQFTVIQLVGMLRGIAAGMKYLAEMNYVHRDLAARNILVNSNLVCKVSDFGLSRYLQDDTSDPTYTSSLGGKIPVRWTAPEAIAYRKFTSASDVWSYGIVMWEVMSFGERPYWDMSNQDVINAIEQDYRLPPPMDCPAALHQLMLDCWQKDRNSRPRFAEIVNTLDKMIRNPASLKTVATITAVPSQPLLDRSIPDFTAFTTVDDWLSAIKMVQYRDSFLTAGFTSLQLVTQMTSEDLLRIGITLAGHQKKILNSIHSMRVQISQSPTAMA
Chain of Beta-3 adrenergic receptor (P13945 whole entry, looked up): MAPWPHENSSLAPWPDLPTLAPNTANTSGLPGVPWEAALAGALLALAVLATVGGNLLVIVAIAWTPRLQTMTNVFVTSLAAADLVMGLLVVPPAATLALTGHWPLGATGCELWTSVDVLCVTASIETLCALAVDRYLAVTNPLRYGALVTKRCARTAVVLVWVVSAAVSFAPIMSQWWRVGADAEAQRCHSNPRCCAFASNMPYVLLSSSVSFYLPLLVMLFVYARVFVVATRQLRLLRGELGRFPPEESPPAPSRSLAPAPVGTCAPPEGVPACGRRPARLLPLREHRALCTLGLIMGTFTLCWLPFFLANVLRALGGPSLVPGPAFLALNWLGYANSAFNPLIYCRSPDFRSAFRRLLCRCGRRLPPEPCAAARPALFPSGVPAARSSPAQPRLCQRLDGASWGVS
Chain of Cyclin-dependent kinase 4 (Homo sapiens) (P11802 whole entry): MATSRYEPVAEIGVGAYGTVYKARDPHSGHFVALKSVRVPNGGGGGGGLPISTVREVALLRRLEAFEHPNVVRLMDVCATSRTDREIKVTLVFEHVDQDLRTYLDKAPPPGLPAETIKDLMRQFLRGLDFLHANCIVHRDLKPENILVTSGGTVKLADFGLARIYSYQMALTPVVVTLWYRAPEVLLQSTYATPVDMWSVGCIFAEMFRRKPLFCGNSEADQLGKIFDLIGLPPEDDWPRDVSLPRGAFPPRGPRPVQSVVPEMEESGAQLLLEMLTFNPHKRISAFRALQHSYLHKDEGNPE
Chain of Calcium-dependent protein kinase 1 (Plasmodium falciparum) (P62344 2-524 limits assumed): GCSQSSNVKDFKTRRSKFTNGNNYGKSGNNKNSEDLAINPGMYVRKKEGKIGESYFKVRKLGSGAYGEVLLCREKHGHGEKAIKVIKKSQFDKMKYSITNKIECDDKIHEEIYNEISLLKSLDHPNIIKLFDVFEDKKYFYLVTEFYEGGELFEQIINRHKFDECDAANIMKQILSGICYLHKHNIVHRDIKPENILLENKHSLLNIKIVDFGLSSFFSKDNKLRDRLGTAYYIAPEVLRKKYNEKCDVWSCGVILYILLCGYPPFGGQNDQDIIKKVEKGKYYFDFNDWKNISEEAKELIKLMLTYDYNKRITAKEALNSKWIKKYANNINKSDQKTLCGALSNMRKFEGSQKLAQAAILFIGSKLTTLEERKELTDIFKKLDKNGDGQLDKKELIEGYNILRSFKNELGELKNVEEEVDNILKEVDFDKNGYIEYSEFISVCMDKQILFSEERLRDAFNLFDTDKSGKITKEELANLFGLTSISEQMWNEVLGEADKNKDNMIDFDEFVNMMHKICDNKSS
Chain of LIM domain kinase 2 (Homo sapiens) (P53671 whole entry, looked up, the tested form may be a part): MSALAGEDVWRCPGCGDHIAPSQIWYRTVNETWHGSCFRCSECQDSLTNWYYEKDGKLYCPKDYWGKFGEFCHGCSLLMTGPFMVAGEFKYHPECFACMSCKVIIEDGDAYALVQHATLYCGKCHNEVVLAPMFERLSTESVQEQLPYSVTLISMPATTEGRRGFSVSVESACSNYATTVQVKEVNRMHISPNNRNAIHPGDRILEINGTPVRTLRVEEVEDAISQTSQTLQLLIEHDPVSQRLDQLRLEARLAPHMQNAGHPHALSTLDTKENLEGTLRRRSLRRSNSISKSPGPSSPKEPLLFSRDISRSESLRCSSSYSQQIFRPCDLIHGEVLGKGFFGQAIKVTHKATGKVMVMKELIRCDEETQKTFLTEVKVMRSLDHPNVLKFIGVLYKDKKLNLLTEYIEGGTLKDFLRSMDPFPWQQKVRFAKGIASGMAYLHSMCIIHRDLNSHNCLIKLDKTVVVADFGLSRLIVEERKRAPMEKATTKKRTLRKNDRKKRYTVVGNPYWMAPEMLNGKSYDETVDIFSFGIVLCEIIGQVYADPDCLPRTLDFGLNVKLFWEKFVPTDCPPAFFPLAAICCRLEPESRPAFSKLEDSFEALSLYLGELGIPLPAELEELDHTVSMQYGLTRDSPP
Chain of Cyclin-dependent kinase 7 (Homo sapiens) (P50613 whole entry): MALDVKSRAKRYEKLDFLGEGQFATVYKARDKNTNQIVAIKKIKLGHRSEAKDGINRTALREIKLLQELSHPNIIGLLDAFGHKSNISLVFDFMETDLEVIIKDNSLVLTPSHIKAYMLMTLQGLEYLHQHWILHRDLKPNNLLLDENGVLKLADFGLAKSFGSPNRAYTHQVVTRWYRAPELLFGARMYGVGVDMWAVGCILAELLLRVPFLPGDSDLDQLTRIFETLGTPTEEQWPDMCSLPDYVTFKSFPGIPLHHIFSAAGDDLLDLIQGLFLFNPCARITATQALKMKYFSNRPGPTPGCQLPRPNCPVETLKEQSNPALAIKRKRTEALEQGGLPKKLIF
Chain of Mitogen-activated protein kinase 14 (Homo sapiens) (Q16539 whole entry): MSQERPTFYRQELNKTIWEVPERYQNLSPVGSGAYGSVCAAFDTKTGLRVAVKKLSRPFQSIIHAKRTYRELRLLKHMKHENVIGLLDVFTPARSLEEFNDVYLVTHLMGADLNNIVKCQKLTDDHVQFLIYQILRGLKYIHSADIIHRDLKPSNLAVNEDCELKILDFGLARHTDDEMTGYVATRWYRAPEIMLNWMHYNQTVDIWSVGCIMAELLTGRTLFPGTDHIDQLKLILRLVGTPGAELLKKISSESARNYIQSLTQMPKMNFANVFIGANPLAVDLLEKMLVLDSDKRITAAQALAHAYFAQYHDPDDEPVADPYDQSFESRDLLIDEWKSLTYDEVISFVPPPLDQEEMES
Chain of Discoidin domain-containing receptor 2 (Homo sapiens) (Q16832 whole entry, the tested form may be a part): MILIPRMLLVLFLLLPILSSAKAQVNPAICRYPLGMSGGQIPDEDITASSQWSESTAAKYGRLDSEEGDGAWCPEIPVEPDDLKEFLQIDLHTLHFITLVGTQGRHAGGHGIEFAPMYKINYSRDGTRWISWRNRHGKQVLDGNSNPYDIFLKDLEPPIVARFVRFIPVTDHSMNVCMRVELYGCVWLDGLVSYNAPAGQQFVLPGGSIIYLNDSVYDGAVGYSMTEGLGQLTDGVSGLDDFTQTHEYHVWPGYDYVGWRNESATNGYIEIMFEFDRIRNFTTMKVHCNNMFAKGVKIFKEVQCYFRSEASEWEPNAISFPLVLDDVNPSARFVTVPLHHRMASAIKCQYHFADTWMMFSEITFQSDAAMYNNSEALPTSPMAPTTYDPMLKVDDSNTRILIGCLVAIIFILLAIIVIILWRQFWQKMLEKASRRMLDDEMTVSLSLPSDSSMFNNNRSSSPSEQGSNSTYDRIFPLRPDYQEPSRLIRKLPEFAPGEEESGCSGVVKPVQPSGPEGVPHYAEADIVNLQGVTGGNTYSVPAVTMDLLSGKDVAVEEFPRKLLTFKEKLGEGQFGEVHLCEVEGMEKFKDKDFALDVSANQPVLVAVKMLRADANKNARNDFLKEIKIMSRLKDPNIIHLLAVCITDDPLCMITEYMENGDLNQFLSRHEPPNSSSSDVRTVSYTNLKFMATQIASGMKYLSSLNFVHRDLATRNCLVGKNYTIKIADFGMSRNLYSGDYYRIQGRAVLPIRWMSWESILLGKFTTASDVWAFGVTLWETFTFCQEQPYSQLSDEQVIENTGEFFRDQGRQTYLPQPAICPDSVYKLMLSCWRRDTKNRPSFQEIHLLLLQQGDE
Chain of Mitogen-activated protein kinase 4 (Homo sapiens) (P31152 whole entry): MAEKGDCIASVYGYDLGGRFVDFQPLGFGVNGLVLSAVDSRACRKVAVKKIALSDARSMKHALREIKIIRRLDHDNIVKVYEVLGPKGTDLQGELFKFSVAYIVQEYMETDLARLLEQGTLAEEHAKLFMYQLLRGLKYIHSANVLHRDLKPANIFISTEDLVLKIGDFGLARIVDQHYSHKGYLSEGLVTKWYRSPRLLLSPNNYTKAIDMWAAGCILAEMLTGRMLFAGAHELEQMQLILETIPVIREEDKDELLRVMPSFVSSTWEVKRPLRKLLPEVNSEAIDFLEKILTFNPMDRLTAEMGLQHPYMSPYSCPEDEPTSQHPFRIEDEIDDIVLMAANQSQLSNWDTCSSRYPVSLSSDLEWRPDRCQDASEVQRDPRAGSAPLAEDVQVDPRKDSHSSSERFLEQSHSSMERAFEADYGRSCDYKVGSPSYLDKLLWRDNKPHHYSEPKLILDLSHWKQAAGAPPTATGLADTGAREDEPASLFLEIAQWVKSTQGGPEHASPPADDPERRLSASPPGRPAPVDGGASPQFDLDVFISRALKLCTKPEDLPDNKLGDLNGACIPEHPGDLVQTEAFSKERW

CC(=O)Nc1c(C(C)=O)c(=O)n(C)c2nc(-c3ccc(Cl)cc3Cl)c(-c3ccc(Cl)cc3)cc12 [NAPHTHYRIDINONE]
residual activity [1]: 100%
residual activity [2]: 100%
residual activity [3]: 82%
residual activity [4]: 100%
residual activity [5]: 100%
inhibition [6]: 37.6%
residual activity [7]: 79%
residual activity [8]: 100%
inhibition [9]: 16.6%
residual activity [10]: 100%
residual activity [11]: 100%
residual activity [12]: 100%
residual activity [13]: 100%
residual activity [14]: 98%
residual activity [15]: 96%
residual activity [16]: 100%
residual activity [17]: 100%
residual activity [18]: 100%
residual activity [19]: 100%
residual activity [20]: 100%
residual activity [21]: 100%
residual activity [22]: 100%
residual activity [23]: 100%
residual activity [24]: 100%
residual activity [25]: 100%
residual activity [26]: 95%
residual activity [27]: 100%
residual activity [28]: 100%
residual activity [29]: 100%
residual activity [30]: 100%
residual activity [31]: 86%
residual activity [32]: 97%
residual activity [33]: 87%
residual activity [34]: 86%
residual activity [35]: 100%
residual activity [36]: 100%
residual activity [37]: 100%
residual activity [38]: 100%
residual activity [39]: 100%
residual activity [40]: 82%
residual activity [41]: 100%
residual activity [42]: 100%
residual activity [43]: 100%
residual activity [44]: 100%
residual activity [45]: 100%

CC(=O)c1c(NS(C)(=O)=O)c2cc(-c3ccc(Cl)cc3)c(-c3ccc(Cl)cc3Cl)nc2n(C)c1=O [MRL-CB1-NC]
residual activity [1]: 100%
residual activity [2]: 100%
residual activity [3]: 100%
residual activity [4]: 98%
residual activity [5]: 97%
inhibition [6]: 69.3%
residual activity [7]: 100%
residual activity [8]: 100%
inhibition [9]: 67.2%
residual activity [10]: 100%
residual activity [11]: 100%
residual activity [12]: 100%
residual activity [13]: 100%
residual activity [14]: 81%
residual activity [15]: 98%
residual activity [16]: 91%
residual activity [17]: 100%
residual activity [18]: 92%
residual activity [19]: 100%
residual activity [20]: 100%
residual activity [21]: 100%
residual activity [22]: 96%
residual activity [23]: 100%
residual activity [24]: 100%
residual activity [25]: 94%
residual activity [26]: 99%
residual activity [27]: 97%
residual activity [28]: 100%
residual activity [29]: 93%
residual activity [30]: 93%
residual activity [31]: 72%
residual activity [32]: 92%
residual activity [33]: 84%
residual activity [34]: 96%
residual activity [35]: 88%
residual activity [36]: 95%
residual activity [37]: 100%
residual activity [38]: 100%
residual activity [39]: 94%
residual activity [40]: 87%
residual activity [41]: 82%
residual activity [42]: 89%
residual activity [43]: 88%
residual activity [44]: 91%
residual activity [45]: 100%

Source: ChEMBL document CHEMBL4507287, “Data for DCP probe MRL-650” (2021)
